# What was measured:
# [1] = system: barnyardgrass; experiment: Test A barnyardgrass; assay type: in vivo, Echinochloa crus-galli; settings: 0 to 10 scale where 0 is no effect and 10 is complete control
# Method in brief: (§1)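 Injury scored visually after about eleven greenhouse days against untreated plants, 0 = no effect, 10 = complete control. Compounds, formulated in surfactant-containing non-phytotoxic solvent, were applied as preemergence soil drench to sandy loam plantings and as postemergence runoff spray at the 1–2 leaf stage.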
# [2] = system: crabgrass; experiment: Test A crabgrass; assay type: in vivo, Digitaria spp.; settings: 0 to 10 scale where 0 is no effect and 10 is complete control
# Method in brief: as §1
# [3] = system: fall panicum; experiment: Test C postemergence fall panicum; assay type: in vivo, Panicum dichotomiflorum; settings: 0 to 100 scale, 0 no effect, 100 complete control
# Experimental: (§2) Compounds evaluated in this test were formulated in a non-phytotoxic solvent mixture which included a surfactant and applied to plants that were grown for various periods of time before treatment (postemergence application). A mixture of sandy loam soil and greenhouse potting mix in a 60:40 ratio was used for the postemergence test.
# (§3) Plantings of these crops and weed species were adjusted to produce plants of appropriate size for the postemergence test. All plant species were grown using normal greenhouse practices. Crop and weed species include arrowleaf sida (Sida rhombifolia), barnyardgrass (Echinochloa crus-galli), cocklebur (Xanthium strumarium), common ragweed (Ambrosia elatior), corn (Zea mays), cotton (Gossypium hirsutum), eastern black nightshade (Solanum ptycanthum), fall panicum (Panicum dichotomiflorum), field bindweed (Convolvulus arvensis), giant foxtail (Setaria faberii), hairy beggarticks (Bidens pilosa), ivyleaf morningglory (Ipomoea hederacea), johnsongrass (Sorghum halepense), ladysthumb smartweed (Polygonum persicaria), lambsquarters (Chenopodium album), large crabgrass (Digitaria sanguinalis), purple nutsedge (Cyperus rotundus), redroot pigweed (Amaranthus retroflexus), soybean (Glycine max), surinam grass (Brachiaria decumbens), velvetleaf (Abutilon theophrasti) and wild poinsettia (Euphorbia heterophylla).
# (§4) Treated plants and untreated controls were maintained in a greenhouse for approximately 14, to 21 days, after which all treated plants were compared to untreated controls and visually evaluated. Plant response ratings, summarized in Table C, were based upon a 0 to 100 scale where 0 was no effect and 100 was complete control. A dash response (−) means no test result.
# [4] = system: redroot pigweed; experiment: Test C postemergence redroot pigweed; assay type: in vivo, Amaranthus retroflexus; settings: 0 to 100 scale, 0 no effect, 100 complete control
# Experimental: as §2, §3, §4
# [5] = system: cocklebur; experiment: Test C postemergence cocklebur; assay type: in vivo, Xanthium strumarium; settings: 0 to 100 scale, 0 no effect, 100 complete control
# Method in brief: (§5)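 Soil: sandy loam/potting mix 60:40. Treatment: postemergence, solvent + surfactant formulation. Readout: visual control score 0–100 vs untreated at ~14–21 days.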
# [6] = system: eastern black nightshade; experiment: Test C postemergence eastern black nightshade; assay type: in vivo, Solanum ptycanthum; settings: 0 to 100 scale, 0 no effect, 100 complete control
# Experimental: as §2, §3, §4
# [7] = system: ivyleaf morningglory; experiment: Test C postemergence ivyleaf morningglory; assay type: in vivo, Ipomoea hederacea; settings: 0 to 100 scale, 0 no effect, 100 complete control
# Method in brief: as §5
# [8] = system: cotton; experiment: Test C postemergence cotton; assay type: in vivo, Gossypium hirsutum; settings: 0 to 100 scale, 0 no effect, 100 complete control
# Experimental: as §2, §3, §4
# [9] = system: velvetleaf; experiment: Test C postemergence velvetleaf; assay type: in vivo, Abutilon theophrasti; settings: 0 to 100 scale, 0 no effect, 100 complete control
# Experimental: as §2, §3, §4
# [10] = system: giant foxtail; experiment: Test C postemergence giant foxtail; assay type: in vivo, Setaria faberii; settings: 0 to 100 scale, 0 no effect, 100 complete control
# Method in brief: as §5
# [11] = system: ladysthumb smartweed; experiment: Test C postemergence ladysthumb smartweed; assay type: in vivo, Polygonum persicaria; settings: 0 to 100 scale, 0 no effect, 100 complete control
# Experimental: as §2, §3, §4
compound,measurement,setting,value
CCN(CC)C(=O)n1oc(=O)n(-c2ccc(OC)cc2)c1=O [Compound 1],"Plant response rating, Barnyardgrass","[1]; Postemergence, Rate 1000 g/ha",8
same,"Plant response rating, Barnyardgrass","[1]; Pre-emergence, Rate 2000 g/ha",9
same,"Plant response rating, Crabgrass","[2]; Postemergence, Rate 1000 g/ha",5
same,"Plant response rating, Crabgrass","[2]; Pre-emergence, Rate 2000 g/ha",9
Cc1ccccc1-n1c(=O)on(C(=O)N(C2=CCOCC2)C(C)C)c1=O [Compound 10],"Plant response rating, Barnyardgrass","[1]; Postemergence, Rate 1000 g/ha",9
same,"Plant response rating, Barnyardgrass","[1]; Pre-emergence, Rate 2000 g/ha",10
same,"Plant response rating, Crabgrass","[2]; Postemergence, Rate 1000 g/ha",8
same,"Plant response rating, Crabgrass","[2]; Pre-emergence, Rate 2000 g/ha",9
CC(C)Oc1cc(-n2c(=O)on(C(=O)N(c3ccc(F)cc3)C(C)C)c2=O)c(Cl)cc1Cl [Compound 43],"Plant response rating, Barnyardgrass","[1]; Postemergence, Rate 1000 g/ha",0
same,"Plant response rating, Barnyardgrass","[1]; Pre-emergence, Rate 2000 g/ha",0
same,"Plant response rating, Crabgrass","[2]; Postemergence, Rate 1000 g/ha",0
same,"Plant response rating, Crabgrass","[2]; Pre-emergence, Rate 2000 g/ha",1
CC(C)N(C(=O)n1oc(=O)n(Cc2cccs2)c1=O)c1ccc(F)cc1 [Compound 80],Plant response rating Fall panicum,[3]; Rate 140 g/ha,0
same,Plant response rating Fall panicum,[3]; Rate 280 g/ha,0
same,Plant response rating Fall panicum,[3]; Rate 560 g/ha,0
same,Plant response rating Fall panicum,[3]; Rate 1120 g/ha,10
same,"Plant response rating, Redroot pigweed",[4]; Rate 280 g/ha,0
same,"Plant response rating, Redroot pigweed",[4]; Rate 560 g/ha,50
same,"Plant response rating, Redroot pigweed",[4]; Rate 1120 g/ha,80
same,"Plant response rating, Cocklebur",[5]; Rate 140 g/ha,5
same,"Plant response rating, Cocklebur",[5]; Rate 280 g/ha,10
same,"Plant response rating, Cocklebur",[5]; Rate 560 g/ha,50
same,"Plant response rating, Cocklebur",[5]; Rate 1120 g/ha,50
same,Plant response rating E. blacknightsh,[6]; Rate 140 g/ha,0
same,Plant response rating E. blacknightsh,[6]; Rate 280 g/ha,5
same,Plant response rating E. blacknightsh,[6]; Rate 560 g/ha,50
same,Plant response rating E. blacknightsh,[6]; Rate 1120 g/ha,60
same,Plant response rating I. morningglory,[7]; Rate 140 g/ha,0
same,Plant response rating I. morningglory,[7]; Rate 280 g/ha,10
same,Plant response rating I. morningglory,[7]; Rate 560 g/ha,30
same,Plant response rating I. morningglory,[7]; Rate 1120 g/ha,50
same,Plant response rating Cotton,[8]; Rate 140 g/ha,20
same,Plant response rating Cotton,[8]; Rate 280 g/ha,35
same,Plant response rating Cotton,[8]; Rate 560 g/ha,40
same,Plant response rating Cotton,[8]; Rate 1120 g/ha,40
same,"Plant response rating, Velvetleaf",[9]; Rate 140 g/ha,5
same,"Plant response rating, Velvetleaf",[9]; Rate 280 g/ha,5
same,"Plant response rating, Velvetleaf",[9]; Rate 560 g/ha,20
same,"Plant response rating, Velvetleaf",[9]; Rate 1120 g/ha,20
same,"Plant response rating, Giant foxtail",[10]; Rate 140 g/ha,0
same,"Plant response rating, Giant foxtail",[10]; Rate 280 g/ha,0
same,"Plant response rating, Giant foxtail",[10]; Rate 560 g/ha,0
same,"Plant response rating, Giant foxtail",[10]; Rate 1120 g/ha,20
same,Plant response rating Ladysthumb,[11]; Rate 140 g/ha,10
same,Plant response rating Ladysthumb,[11]; Rate 280 g/ha,10
same,Plant response rating Ladysthumb,[11]; Rate 560 g/ha,70
same,Plant response rating Ladysthumb,[11]; Rate 1120 g/ha,70
